Experimental data as given in PubChem BioAssay (NCI).
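Interpolation was linear, between the two tested concentrations surrounding the appropriate level; five concentrations were tested over 48 hours in 96-well plates. GI50 is the concentration that inhibits growth by half. Definition used: TGI = concentration required for complete inhibition of growth.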

Legend:
Experiment in all cases: DTP human tumour cell line panel, 48 h
MDA-MB-435 = system: MDA-MB-435
HCT-116 colon = system: HCT-116 colon
ACHN renal = system: ACHN renal
SR leukemia = system: SR leukemia
TK-10 renal = system: TK-10 renal
U251 CNS = system: U251 CNS
HCT-15 colon = system: HCT-15 colon
NCI-H23 lung = system: NCI-H23 lung
UO-31 renal = system: UO-31 renal
HL-60(TB) leukemia = system: HL-60(TB) leukemia

Structure (SMILES)	TGI (MDA-MB-435) [µM]	TGI (HCT-116 colon) [µM]	TGI (ACHN renal) [µM]	TGI (SR leukemia) [µM]	TGI (TK-10 renal) [µM]	TGI (U251 CNS) [µM]	TGI (HCT-15 colon) [µM]	TGI (NCI-H23 lung) [µM]	TGI (UO-31 renal) [µM]	TGI (HL-60(TB) leukemia) [µM]	GI50 (HCT-15 colon) [µM]
Cc1ccc(C)c(COCCOCn2cc(N3CCOCC3)c(=O)[nH]c2=O)c1	> 100	> 100	> 100	> 100	> 100	> 100	> 100	> 100	> 100	> 100	
O=C1c2cc3c(cc2CC12Cc1ccc4c(c1C2=O)CCC4)CCC3 (stereo unspecified)	> 100	> 100	> 100	> 100	> 100	> 100	> 100	> 100	> 100	> 100	
CCOC(=O)/C=C/CCC(C)(C)COC(C)=O	> 10	> 10	> 10	> 10	> 10	> 10	> 10	> 10	> 10	> 10	
NC(=O)c1ccc[n+](C2=C([O-])c3ccccc3C(=O)/C2=N\S(=O)(=O)c2ccccc2)c1	17.2	32.4	26.4	> 100	> 100	29	95.9	30.6	27.9	> 100	
CC[C@H](NC(=O)OC(C)(C)C)C(=O)NCP(=O)(OCc1ccc([N+](=O)[O-])cc1)OCc1ccc([N+](=O)[O-])cc1	> 100	> 100	69.7	> 100	> 100	97.1	> 100	> 100	80.2	62.2	
CSc1nc(=O)c2nc(-c3cccs3)c(-c3cccs3)nc2n1C	> 100	> 100	> 100	> 100	> 100	> 100	> 100	> 100	> 100	> 100	
CC1=NN2C(=N)/C(=C/c3ccc(F)cc3)C(=O)N=C2S1	> 100	> 100	> 100	> 100	> 100	> 100	> 100	> 100	> 100	> 100	
CCOC(=O)N1CCN(c2c(N)nc(C)[nH]c2=O)CC1	> 100	> 100	> 100	> 100	> 100	> 100	> 100	> 100	> 100	> 100	
CC[C@]12C=CCN3CCC4(c5cc([C@@]6(C(=O)OC)CC7CN(CCc8c6[nH]c6ccccc86)CC6CCCCC67)c(OC)cc5N(C)C4[C@](O)(C(=O)OC)C1OC(C)=O)[C@@H]32 (stereo partly specified)	< 0.01	0.0631	11.6	> 33.8	18.7	< 0.01	20.1	< 0.01	7.31	> 100	0.693
CNC(=S)N1CCN(C(C)=O)C1=S	> 100	> 100	> 100	> 100	> 100	17.2	> 100	> 100	> 100	> 100	
CCC1([N+](=O)[O-])CN(N=O)C1	> 100	> 100	> 100	> 100	> 100	> 100	> 100	> 100	> 100	> 100	
O=C(Nc1nn(C(=O)c2cccnc2)c(=O)s1)c1ccc(Cl)cc1	> 100	> 100	> 100	> 100	> 100	> 100	> 100	> 100	78.9	> 100	
CC(C)=C/C(CC(O)(C(F)(F)F)C(F)(F)F)=N\O	> 100	> 100	> 100	> 100	> 100	> 100	> 100	> 100	> 100	> 100	
CC1(C)N=C(N)N=C(N)N1c1cccc(Cl)c1	> 100	> 100	> 100	> 100	> 100	> 100	> 100	> 100	> 100	> 100	
COc1ccc(C(=O)/C=C/SC(=NC#N)SC)cc1	49.2	28.1	46.7	19.6	42.2	37.9	28.8	33.2	37.4	> 100	
NCCCCNCCCN1CCOC1=O	> 100	> 100	> 100	> 100	> 100	> 100	> 100	> 100	> 100	> 100	
CO[P@@]1(=O)O[C@@H](c2ccccc2)[C@H](O)[C@]1(O)c1ccccc1	> 100	> 100	> 100	> 100	> 100	> 100	> 100	> 100	> 100	> 100	
Cc1cc(-c2cc(C(C)(C)C)c(O)c(C(C)(C)C)c2)c(C)cc1-c1cc(C(C)(C)C)c(O)c(C(C)(C)C)c1	32.7	> 100	> 100	> 100	> 100	> 100	> 100	> 100	> 100	> 100	
C[C@H]1[C@H](C)CC[C@]2(C(=O)OC3OC(CO)C(O)C(O)C3O)CC[C@]3(C)C(=CC[C@@H]4[C@@]5(C)C[C@@H](O)[C@@H]6OC(=O)c7cc(O)c(O)c(O)c7-c7c(cc(O)c(O)c7O)C(=O)OC[C@@]6(CO)[C@@H]5CC[C@]43C)[C@H]12 (stereo partly specified)	37.2	> 100	> 100	> 100	> 100	> 100	> 100	> 100	> 100	> 100	
O=C1C=CC(=O)c2c(O)c(N3CCC[C@@H]3CO)c(Cl)c(O)c21	3.78	2.91	2.96	4.88	3.3	3.46	3.35	3.55	3.49	0.734	
CSc1ncc2c(n1)-c1ccccc1OC2NC1CC1 (stereo unspecified)	> 100	> 100	> 100	> 100	> 100	> 100	> 100	> 100	> 100	73.3	
